Results published in patent publication US9464280B1, “Beta-lactamases with improved properties for therapy” (priority 2014, dated 2016).
Values after ≈ are worked out from the molar mass of the structure shown. Where two headings read alike, the source gives them in different places.

Columns and labels:
[1] = system: Escherichia coli ATCC 25922; assay: Microbroth dilution: EC50 of ampicillin and ceftriaxone in absence and presence of P1A; type: cell-based; settings: Escherichia coli, ATCC25922, P1A 0, read-out: Ampiellin EC50
Procedure: (§1) Escherichia coli strain 25922 was cultured from glycerol stocks to logarithmic growth in cation adjusted Mueller-Hinton broth at 37° C. in an atmospheric environment and diluted in cation adjusted Mueller-Hinton broth to achieve a starting in well concentration of 5×10^5 CFU/mL. Serial 2-fold dilution of antimicrobial compounds were prepared in cation adjusted Mueller-Hinton broth to achieve final in well concentration of 128 μg/mL to 0.13 μg/mL for ampicillin and 4 μg/mL 4 ng/mL in the absence or presence of serial 10-fold dilutions of P1A, P3A, or P4A β-lactamase standard, 5 pg/mL to 50 ng/mL for ampicillin and […] to 500 ng/mL for ceftriaxone, ceftazidime, meropenem, cefepime, cefazolin, amp/sulbactam, cefoperazone, cefotaxime, and cefuroxime. Antibiotics were either added to the P1A and incubated for 30 min at 37° C. (pre-incubation) prior to addition of bacteria, or added to the plates following the addition of P1A, P3A, P4A, and bacteria (simultaneous). All concentrations and combinations were evaluated in triplicate in a 96-well plate format that contained media only, compound plus media only (colorimetric control), and untreated bacterial controls.
The 50% effective inhibitory concentration (EC50) of ampicillin and ceftriaxone against Escherichia coli was determined in the absence and presence of P1A β-lactamase. For the purposes of these studies, the stated effective concentration was the initial concentration of ampicillin or ceftriaxone added at the beginning of the experiment, and not a concentration measured during the course of the experiment or at the end of the incubation period.
Antibiotics were either added to the P1A and incubated for 30 min at 37° C. (Pre-incubation) prior to addition of bacteria, or added to the plates following the addition of P1A and bacteria (Simultaneous). All concentrations and combinations were evaluated in triplicate in a 96-well plate format. Following overnight incubation, the 0D625 of the plates was measured in a Spectramax 384 plate reader and the data were imported into a customized Excel spreadsheet for the determination of the 50% effective inhibitory concentration at (EC50) by linear regression analysis. For the purposes of these studies, the stated effective concentration is the initial concentration of ampicillin or ceftriaxone added at the beginning of the experiment, and not a concentration measured during the course of the experiment or at the end of the incubation period.
Antibiotics were either added to the P1A and incubated for 30 min at 37° C. (Pre-incubation) prior to addition of bacteria, or added to the plates following the addition of P1A and bacteria (Simultaneous). All concentrations and combinations were evaluated in triplicate in a 96-well plate format. Following overnight incubation, the OD625 of the plates was measured in a Spectramax 384 plate reader and the data were imported into a customized Excel spreadsheet for the determination of the 50% effective inhibitory concentration (EC50).
Antibiotics were added to the P1A bacteria (Simultaneous). All concentrations and combinations were evaluated in triplicate in a 96-well plate format. Following overnight incubation, the OD625 of the plates was measured in a Spectramax 384 plate reader and the data were imported into a customized Excel spreadsheet for the determination of the 50% effective inhibitory concentration at (EC50) by linear regression analysis.

[2] = system: Escherichia coli ATCC 25922; assay: microbe, parasite or virus in culture; type: cell-based; settings: for EC50 / EC90: Escherichia coli, ATCC25922, no enzyme
[3] = system: Escherichia coli ATCC 25922; assay: microbe, parasite or virus in culture; type: cell-based; settings: for EC90: Escherichia coli, ATCC25922, no enzyme
Procedure: as §1
Next, the 90% effective inhibitory concentration (EC90) of ampicillin, ceftriaxone, ceftazidime, meropenem, cefepime, cefazolin, amp/sulbactam, cefoperazone, cefotaxime, and cefuroxime against Escherichia coli was determined in the absence and presence of P1A, P3A, or P4A β-lactamase. For the purposes of these studies, the stated effective concentration was the initial concentration of ampicillin, ceftriaxone, ceftazidime, meropenem, cefepime, cefazolin, amp/sulbactam, cefoperazone, cefotaxime, and cefuroxime added at the beginning of the experiment, and not a concentration measured during the course of the experiment or at the end of the incubation period.
Specifically, the assay was performed by diluting (2-fold steps) the chosen antibiotic across the rows of a 96 well dish. The MIC was determined as the point at which the diluted antibiotic transitions from killing to not killing the bacteria (in this case, an E. coli strain that is sensitive to all antibiotics). P1A, P3A, and P4A were diluted (10 fold steps) down the columns (the β-lactamase concentrations increased down the columns). […] The latter point was used as the cut-off point. […] However, for this assay, the absolute MIC is not the most important parameter. The most relevant readout was the β-lactamase concentration at which the apparent MIC increases to the maximum amount of antibiotic tested.
(§2) E coli 29522 was incubated overnight in the presence of serial dilutions of antibiotic and the indicated amounts of β-lactamase protein from cell culture supernatants in a 96 well plate. Bacterial density (OD625) of the cultures was measured and the concentration at which the density was reduced by 90% relative to an untreated bacterial control (EC90) was determined. The assay was performed on two separate days and the data reported as Rep1 and Rep2. NA=not assayed.
as §2, with “determined.” for “determined. The assay was performed on two separate days and the data reported as Rep1 and Rep2. NA=not assayed.”

[4] = Preliminary enzymatic activity of P1A mutants from B. subtilis supernatants; type: biochemical; settings: B. subtilis supernatant, one substrate concentration
Procedure: β-lactamase activity of the mutants was further characterised from E. coli cell lysates and B. subtilis growth supernatant with ampicillin, cefotaxime, ceftriaxone, cefuroxime, ceftazidime, meropenem and imipenem. The activities were determined using only one substrate concentration of each antibiotic tested. Selection of the antibiotic concentration was done with the antibiotic concentration as high as was practical, [S]>>Km. Based on these preliminary experiments, more accurate kinetic parameters were determined for a couple of mutants from both the site-directed and the random mutagenesis research lines. All the mutant enzymes selected for more detailed study were expressed in the B. subtilis host strain RS303. The cells carrying the mutated proteins were grown in minimal medium over-night after which the cells were harvested and the supernatant was concentrated in 1:10 with Amicon Ultra-4 centrifugal devices, MWCO 10000 (Amicon). Protein concentration in each culture supernatant was estimated from 12% SDS-PAGE (Criterion XT Bis-Tris, BioRad, Calif., USA) using the P1A reference material A18K31 as a standard. Kinetic parameters were measured for cefotaxime, ceftriaxone and cefuroxime for each selected mutant strain. The site-directed mutants were designed to hydrolyze cefotaxime and random mutants were screened with ceftriaxone, which made these antibiotics natural choices for determining kinetic parameters.

E. coli (ATCC 25922) = assay: Microtiter plate antibiotic degradation activity assay; type: cell-based
Procedure: P1A and P4A were screened for degradation of ampicillin, ceftriazone, cefotaxime, cefozolin, cefuroxime, cefoperazone, cefepime, and ceftazidime in a microtiter plate activity assay that was designed to mimic the activity of the beta-lactamases in the gut in the presence of high antibiotic concentrations. The assay was performed by mixing 10, 100 or 1000 μg/ml of the indicated antibiotics with P1A or P4A, at concentrations of 10 or 100 ng/ml. Plates were either incubated for one hour at 37° C. after which E. coli (ATCC 25922) was added, or E. coli was added immediately after the addition of the beta-lactamase enzymes. The plates were incubated overnight and the bacterial growth quantified by measuring the absorbance at 625 nm (OD625) in a Spectramax 384 Plus plate reader. The analysis was performed twice for each beta-lactamase and antibiotic. The beta-lactamase activity of the culture supernatants was determined as positive or negative based on the appearance of bacterial growth in the individual wells. An OD625 of 1.0 or greater indicated maximal bacterial growth, therefore complete antibiotic degradation and high beta-lactamase activity.

[5] = no enzyme, 2nd value, high test 2 μg/mL

CC1(C)S[C@@H]2[C@H](NC(=O)[C@H](N)c3ccccc3)C(=O)N2[C@H]1C(=O)O [Ampicillin]
EC50 ([1]; pre-incubation, Table 12): 16 µg/mL | EC50 ([1]; pre-incubation, Table 13): 16 µg/mL | EC50 ([1]; simultaneous, Table 12): 16 µg/mL | EC50 ([1]; simultaneous, Table 13): 16 µg/mL | EC50 ([1]; simultaneous, Table 14 repeat analysis): 16 µg/mL | EC50 ([2]; Rep 1, Table 15, read-out: Ampiellin EC50): 2 µg/mL (≈ 5.72 µM) | EC50 ([2]; Rep 2, Table 15, read-out: Ampiellin EC50): 4 µg/mL (≈ 11.4 µM)

Cc1nnc(SCC2=C(C(=O)O)N3C(=O)[C@@H](NC(=O)Cn4cnnn4)[C@H]3SC2)s1 [Cefazolin]
EC90 ([2]; 1st value, high test 64 μg/mL, read-out: Cefazolin EC90): 2 µg/mL (≈ 4.4 µM) | EC90 ([2]; 2nd value, high test 64 μg/mL, read-out: Cefazolin EC90): 2 µg/mL (≈ 4.4 µM)

CO/N=C(\C(=O)N[C@@H]1C(=O)N2C(C(=O)[O-])=C(C[N+]3(C)CCCC3)CS[C@H]12)c1csc(N)n1 [Cefepime]
EC50 ([2]; 1st value, high test 2 μg/mL, read-out: Cefepime EC50): 0.06 µg/mL (≈ 0.125 µM) | EC50 ([2]; 2nd value, high test 2 μg/mL, read-out: Cefepime EC50): 0.03 µg/mL (≈ 0.0624 µM) | Cefepime EC50 [2, 5]: 0.03/0.03 μg/mL

CCN1CCN(C(=O)N[C@@H](C(=O)N[C@@H]2C(=O)N3C(C(=O)O)=C(CSc4nnnn4C)CS[C@H]23)c2ccc(O)cc2)C(=O)C1=O [Cefoperazone]
Cefoperazone EC90 ([3]; no enzyme, 1st value, high test 8 μg/mL): 0.25/0.25 μg/mL | EC90 ([2]; 1st value, high test 8 μg/mL, read-out: Cefoperazone EC90): 0.25 µg/mL (≈ 0.387 µM) | EC90 ([2]; 2nd value, high test 8 μg/mL, read-out: Cefoperazone EC90): 0.13 µg/mL (≈ 0.201 µM) | Cefoperazone EC90 ([2]; no enzyme, 2nd value, high test 8 μg/mL): 0.25/0.25 μg/mL

CO/N=C(\C(=O)N[C@@H]1C(=O)N2C(C(=O)O)=C(COC(C)=O)CS[C@H]12)c1csc(N)n1 [Cefotaxime]
EC90 ([3]; 2nd value, high test 2 μg/mL, read-out: Cefotaxime EC90): 0.008 µg/mL | EC90 ([2]; 1st value, high test 2 μg/mL, read-out: Cefotaxime EC90): 0.004 µg/mL (≈ 0.00878 µM) | Cefotaxime EC90 ([2]; no enzyme, 1st value, high test 2 μg/mL): 0.004/0.004 μg/mL | Cefotaxime EC90 [2, 5]: 0.004/0.004 μg/mL

CC(C)(O/N=C(\C(=O)N[C@@H]1C(=O)N2C(C(=O)[O-])=C(C[n+]3ccccc3)CS[C@H]12)c1csc(N)n1)C(=O)O [Ceftazidime]
EC50 ([2]; 1st value, high test 4 μg/mL, read-out: Ceftazidime EC50): 0.13 µg/mL (≈ 0.238 µM) | Ceftazidime EC50 ([2]; no enzyme, 1st value, high test 4 μg/mL): 0.13/0.13 μg/mL | Ceftazidime EC50 ([2]; no enzyme, 2nd value, high test 4 μg/mL): 0.5 µg/mL

CO/N=C(\C(=O)N[C@@H]1C(=O)N2C(C(=O)O)=C(COC(N)=O)CS[C@H]12)c1ccco1 [Cefuroxime]
EC90 ([3]; 1st value, high test 128 μg/mL, read-out: Cefuroxime EC90): 4 µg/mL | Cefuroxime EC90 ([3]; no enzyme, 1st value, high test 128 μg/mL): 2.0 µg/mL | EC90 ([2]; 2nd value, high test 128 μg/mL, read-out: Cefuroxime EC90): 4 µg/mL (≈ 9.43 µM) | Cefuroxime EC90 ([2]; no enzyme, 2nd value, high test 128 μg/mL): 2.0 µg/mL

C[C@@H](O)[C@H]1C(=O)N2C(C(=O)O)=C(S[C@@H]3CN[C@H](C(=O)N(C)C)C3)[C@H](C)[C@H]12 [Meropenem]
EC50 ([2]; 1st value, high test 1 μg/mL, read-out: Meropenem EC50): 0.06 µg/mL (≈ 0.156 µM) | EC50 ([2]; 2nd value, high test 1 μg/mL, read-out: Meropenem EC50): 0.06 µg/mL (≈ 0.156 µM) | Meropenem EC50 ([2]; no enzyme, 2nd value, high test 1 μg/mL): 0.03 µg/mL

IS203: P1A with T160F
AMP = ampicillin enzymatic activity [4]: 0.01 multiples of P1A | CAZ = ceftazidime enzymatic activity [4]: 0.13 multiples of P1A | CRO = ceftriaxone enzymatic activity [4]: 0.00 multiples of P1A | CTX = cefotaxime enzymatic activity [4]: 0.01 multiples of P1A | CXM = cefuroxime enzymatic activity [4]: 0.00 multiples of P1A

B1: IS288: P1A with A232G A237S A238G S240D D276N; SEQ ID NO: 5 (protein)
chain: EMKDDFAKLEEQFDAKLGIFALDTGTNRTVAYRPDERFAFASTIKALTVGVLLQQKSIEDLNQRITTRDDLVNYNPITEKHVDTGMTLKELADASLRYSDNAAQNLILKQIGGPESLKKELRKIGDEVTNPERFEPELNEVNPGETQDTSTARALVTSLRAFALEDKLPSEKRELLIDWMKRNTTGDALIRAGVPDGWEVGDKTGSGDYGTRNDIAIIWPPKGDPVVLAVLSSRDKKDAKYDNKLIAEATKVVMKALNMNGK
inhibition by sulbactam ([3]; amp/sulbactam data): effectively inhibited | activity relative to P1A, all antibiotics except ampicillin (E. coli (ATCC 25922); enzyme 10 or 100 ng/ml, FIG. 8): imporved activity relative to P1A | cephalosporinase activity boosted relative to P1A (E. coli (ATCC 25922); modification of five amino acids in P1A): 10-1000 fold | improvement of activity for ceftazidime ([2]; data showed activity at 500 ng/ml): 10 fold | β-lactamase activity in comparison to P1A ([2]; for ceftriaxone, cefotaxime, ceftazidime, cefazolin, cefoperazone and cefuroxime): ≥ 10 fold
